*1 amine or outer side, *2 acyl side, *3 side chain or, on linkers, in order; H or OH if unused. Where a SMILES comes first, the peptide text is derived from it. Side-chain parts run from the residue outwards. [ ]: non-standard residue; d: D form. The star is where a group is joined. C20 diacid = O=C(O)CCCCCCCCCCCCCCCCCCC(=O)*; C18 diacid = O=C(O)CCCCCCCCCCCCCCCCC(=O)*; γGlu = O=C(O)[C@H](CCC(=O)[*:2])N[*:1]; Pentanoyl = CCCCC(=O)*; AEEA = NCCOCCOCC(=O)O; Aib = CC(C)(N)C(=O)O
Assays:
[1] = In vitro subcutaneous tissue supernatant (SCts) stability and metabolite identification, rat; format: in vitro ADME; set-up: remaining at 2 h: dose or concentration left out as unconfirmed; conditions: male, Sprague Dawley; rat subcutaneous tissue supernatant (SCts), 37° C, 2 h
[2] = Chemical stability in buffer (pH 7.4 / pH 4.5), % purity loss; format: physicochemical; conditions: 40° C. vs 5° C., 14 or 28 days; for Buffer stability pH 7.4 % purity loss: 100 mM phosphate buffer pH 7.4
How it was run: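 LC-UV gave % loss after 14 or 28 days of storage at 5 °C or 40 °C. Samples were diluted supernatants from compound incubated 1 h at room temperature at 10 mg/mL target, in 100 mM acetate pH 4.5 or 100 mM phosphate pH 7.4.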

Sprague Dawley rats = experiment: Effect on systolic blood pressure, telemetry in Sprague Dawley rats; format: in vivo, rat; conditions: 0.1 mg/kg SC; for Systolic blood pressure (Mean) % change from baseline, 8 h / Systolic blood pressure (Mean) % change from baseline, 12 h / Systolic blood pressure (Mean) % change from baseline, 24 h: n=2; for Duration of action: last time point with an effect on BP still observed
How it was run: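 Values are % change from a 1 h pre-dose baseline in systolic pressure, tracked by telemetry for up to 48 hours after a single 0.1 mg/kg subcutaneous dose. Rats (Sprague Dawley, n=2 per peptide) carried aortic catheters and recovered at least 10 days post-surgery; duration of action marks the last time point still showing an effect.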

[3] = Pharmacokinetics in male Sprague Dawley rats after subcutaneous administration; format: in vivo; conditions: plasma, rat, IV
human CRF2a receptor = target: T1, human CRF2a receptor (Homo sapiens, UniProt Q13324); experiment: Activity at human CRF2a receptor, cAMP functional assay in TeloHEAC cells; format: cell-based; conditions: TeloHEAC cells stably expressing human CRF2a receptor, relative to urocortin 2 (100 nM = 100%)
T1 construct: expressed in transfected cells; host or cells: TeloHEAC cells
T1 sequence (Q13324 1-411): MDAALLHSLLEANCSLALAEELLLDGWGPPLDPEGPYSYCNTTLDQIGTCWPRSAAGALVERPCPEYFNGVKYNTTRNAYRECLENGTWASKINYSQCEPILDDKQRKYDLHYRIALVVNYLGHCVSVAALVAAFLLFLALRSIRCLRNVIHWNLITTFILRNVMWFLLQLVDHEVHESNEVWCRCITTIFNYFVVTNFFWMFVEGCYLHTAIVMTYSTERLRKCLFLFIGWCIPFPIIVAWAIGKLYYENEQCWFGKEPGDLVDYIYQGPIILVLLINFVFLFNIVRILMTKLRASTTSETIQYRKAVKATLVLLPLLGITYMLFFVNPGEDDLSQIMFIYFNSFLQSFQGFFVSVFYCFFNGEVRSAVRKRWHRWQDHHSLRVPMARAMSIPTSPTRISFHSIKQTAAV
How it was run: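 TeloHEAC cells stably expressing human CRF2a (10000 cells/well) were treated with 16-point 1:2 compound dilutions in HBSS/20 mM HEPES with IBMX for 30 min at 37° C. cAMP was read by HTRF (665/620 nm ratio). EC50 was the concentration giving 50% activation, with 100 nM urocortin 2 set as 100%.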

CFR1R receptor = target: T2, CFR1R receptor (Homo sapiens, UniProt P34998); experiment: Activity at anti-target CFR1R receptor, cAMP assay in CRF1R-overexpression CHO-K1 cells; format: cell-based; conditions: 100% = Sauvagine at 100 nM; for EC50: cAMP
T2 construct: host or cells: CHO-K1 (clone 2)
T2 sequence (P34998 24-415): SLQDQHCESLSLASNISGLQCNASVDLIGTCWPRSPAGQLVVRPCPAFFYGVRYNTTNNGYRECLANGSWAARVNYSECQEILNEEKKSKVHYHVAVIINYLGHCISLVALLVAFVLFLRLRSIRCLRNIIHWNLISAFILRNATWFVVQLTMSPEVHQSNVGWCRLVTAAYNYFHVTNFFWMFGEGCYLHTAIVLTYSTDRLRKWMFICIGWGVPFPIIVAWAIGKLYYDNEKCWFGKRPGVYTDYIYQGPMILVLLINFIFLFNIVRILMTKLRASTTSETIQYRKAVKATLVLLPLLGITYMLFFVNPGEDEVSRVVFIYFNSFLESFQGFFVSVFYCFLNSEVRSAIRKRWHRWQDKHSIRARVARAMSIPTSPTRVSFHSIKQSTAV
How it was run: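 Grow clone 2 to near confluence at 37° C. under 5% CO2 in F12 (Hams) with 10% FBS and G418, harvest, and freeze in 10% DMSO. Thaw and plate at 4000 cells/well. Then proceed per the TeloHAEC method, normalising to Sauvagine 100 nM as maximum.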

SMILES	remaining at 2 h [1]	Buffer stability pH 4.5 % purity loss ([2]; 100 mM acetate buffer pH 4.5)	Buffer stability pH 7.4 % purity loss [2]	Systolic blood pressure (Mean) % change from baseline, 8 h (Sprague Dawley rats)	Systolic blood pressure (Mean) % change from baseline, 12 h (Sprague Dawley rats)	Systolic blood pressure (Mean) % change from baseline, 24 h (Sprague Dawley rats)	Duration of action (Sprague Dawley rats)	AUC(0-t) ([3]; 0.025 mg/kg)	half-life ([3]; 0.025 mg/kg)	EC50 (human CRF2a receptor)	Emax (% I) (CFR1R receptor)	EC50 (CFR1R receptor)	AUC(0-t) ([3]; 0.05 mg/kg)	half-life ([3]; 0.05 mg/kg)
CCCCC(=O)N[C@H](C(=O)N[C@@H](CC(C)C)C(=O)N[C@@H](CO)C(=O)N[C@@H](CC(C)C)C(=O)N[C@@H](CC(=O)O)C(=O)N[C@@H](C(=O)N1CCC[C@H]1C(=O)N[C@H](C(=O)N[C@@H](CCCCN)C(=O)N[C@@H](CC(C)C)C(=O)N[C@@H](CCCCNC(=O)COCCOCCNC(=O)CC[C@H](NC(=O)CCCCCCCCCCCCCCCCCCC(=O)O)C(=O)O)C(=O)N[C@@H](CCCCN)C(=O)N[C@H](C(=O)N[C@@H](CC(C)C)C(=O)N[C@@H](CC(C)C)C(=O)N[C@@H](CCC(=O)O)C(=O)N[C@@H](CCC(N)=O)C(=O)N[C@@H](CCC(=O)O)C(=O)N[C@@H](CCCCN)C(=O)N[C@@H](CCC(N)=O)C(=O)N[C@@H](CCCCN)C(=O)N[C@@H](CCCCN)C(=O)N[C@@H](CCC(N)=O)C(=O)N[C@@H](CCCNC(=N)N)C(=O)N[C@@H](CCC(=O)O)C(=O)N[C@@H](CCC(N)=O)C(=O)N[C@@H](C)C(=O)N[C@@H](CCC(=O)O)C(=O)N[C@H](C(=O)N[C@@H](CC(N)=O)C(=O)NC(C)(C)C(=O)N[C@@H](CCC(N)=O)C(=O)N[C@H](C(=O)N[C@@H](CC(C)C)C(=O)N[C@@H](C)C(=O)N[C@@H](CCC(N)=O)C(=O)N[C@H](C(N)=O)C(C)C)[C@@H](C)CC)[C@@H](C)O)[C@@H](C)CC)[C@@H](C)CC)C(C)C)C(C)C [compound 235] (Pentanoyl-VLSLD[dV]PIKLK([AEEA-γGlu-C20 diacid])KILLEQEKQKKQREQAETN[Aib]QILAQV-NH2)	66%	−1.6%	0.0%	−8%	−7%	−12%	>24 h	4510 ng·h/mL	8 h	0.16 nM	27 % I	> 250 nM	–	–
CC[C@H](C)[C@H](NC(C)=O)C(=O)N[C@H](C(=O)N[C@@H](CC(C)C)C(=O)N[C@@H](CO)C(=O)N[C@@H](CC(C)C)C(=O)N[C@@H](CC(=O)O)C(=O)N[C@@H](C(=O)N1CCC[C@H]1C(=O)N[C@H](C(=O)N[C@@H](CCCCN)C(=O)N[C@@H](CC(C)C)C(=O)N[C@@H](CCCCNC(=O)CC[C@H](NC(=O)CCCCCCCCCCCCCCCCC(=O)O)C(=O)O)C(=O)N[C@@H](CCCCN)C(=O)N[C@H](C(=O)N[C@@H](CC(C)C)C(=O)N[C@@H](CC(C)C)C(=O)N[C@@H](CCC(=O)O)C(=O)N[C@@H](CCC(N)=O)C(=O)N[C@@H](CCC(=O)O)C(=O)N[C@@H](CCCCN)C(=O)N[C@@H](CCC(N)=O)C(=O)N[C@@H](CCCCN)C(=O)N[C@@H](C)C(=O)N[C@@H](CCC(N)=O)C(=O)N[C@@H](CCCNC(=N)N)C(=O)N[C@@H](CCC(=O)O)C(=O)N[C@@H](CCC(N)=O)C(=O)N[C@@H](C)C(=O)N[C@@H](CCC(=O)O)C(=O)N[C@H](C(=O)N[C@@H](CC(N)=O)C(=O)NC(C)(C)C(=O)N[C@@H](CCC(N)=O)C(=O)N[C@H](C(=O)N[C@@H](CC(C)C)C(=O)N[C@@H](C)C(=O)N[C@@H](CCC(N)=O)C(=O)N[C@H](C(N)=O)C(C)C)[C@@H](C)CC)[C@@H](C)O)[C@@H](C)CC)[C@@H](C)CC)C(C)C)C(C)C [compound 189] (Ac-IVLSLD[dV]PIKLK([γGlu-C18 diacid])KILLEQEKQKAQREQAETN[Aib]QILAQV-NH2)	67%	–	0.0/Not Tested %	−27%	−25%	−13%	>24 h	–	–	0.29 nM	9 % I	> 250 nM	5040 ng·h/mL	7.5 h

Source: patent US20260001928A1 (CORTERIA PHARMACEUTICALS, priority 2022, published 2026)
